According to patent US20090105349A1, “ANDROGEN MODULATORS” (WARNER-LAMBERT COMPANY LLC, priority 2004, published 2009):

What was measured:
[1] = system: male Syrian hamsters (ear sebaceous glands, sebum); experiment: Animal model for inhibition of sebum production (hamster ear); assay type: in vivo, Syrian hamster; details: 3 % w/v, 4 weeks
Protocol: Arch. Derm. […] This model uses male Syrian hamsters, whose ears contain sebaceous glands.
Testing for sebum inhibition was carried out in the following manner. Male Syrian hamsters aged 9 to 10 weeks were introduced into the laboratory environment and acclimated for 2 weeks prior to use in the study. Each group consisted of 5 animals and run in parallel with vehicle and positive controls. Prior to administration, a sufficient quantity each compound was dissolved in 1 mL of the vehicle identified in Table III to achieve the final concentration reported in Table Ill.
Animals were dosed topically twice daily, five days a week, for 4 weeks. Each dose consisted of 25 micro liters of vehicle control or drug. The dose was applied to the ventral surfaces of both the right and left ears. All animals were sacrificed approximately 18-24 hours after the final dose. The right ears were collected from each animal and used for sebum analysis.
The ears were prepped for HPLC analysis in the following manner. One 8 mm distal biopsy punch was taken, just above the anatomical “V” mark in the ear to normalize the sample area. The punch was pulled apart. The ventral biopsy surface (the area where the topical dose was directly applied to the sebaceous glands) was retained for testing and the dorsal surface of the biopsy punch was discarded.
Tissue samples were blown with N2 gas and stored at −80° C. under nitrogen until HPLC analysis. In addition to ear samples, an aliquot of each drug and vehicle (at least 250 ul) was also stored at −80° C. for inclusion in the HPLC analysis.
HPLC analysis was carried out on an extract of the tissue sample. Tissue samples were contacted with 3 ml of solvent (a 4:1 admixture of 2,2,4-trimethylpentane and isopropyl alcohol). The mixture was shaken for 15 minutes and stored overnight at room temperature, protected from light. The next morning 1 milliliter of water was added to the sample and shaken for 15 minutes. The sample was then centrifuged at approximately 1500 rpm for 15 minutes. Two ml of the organic phase (top layer) was transferred to a glass vial, dried at 37° C., under nitrogen, for approximately 1 hour, and then lyophilized for approximately 48 hours. The samples were then removed from the lyophilizer and each vial was reconstituted with 600 μl of solvent A (trimethylpentane/tetrahydrofuran (99:1). The samples were then recapped and vortexed for 5 minutes.
200 μl of each sample was then transferred to a pre-labeled 200 μl HPLC vial with 200 μL glass inserts. The HPLC vials were placed in the autosampler tray for the Agilent 1100 series HPLC unit. The Agilent 1100 HPLC system consisted of a thermostated autosampler, a quarternary pump, a column heater, and an A/D interface module. All components were controlled by Agilent ChemStation software. A Waters Spherisorb S3W 4.6×100 mm analytical column was maintained at 30° C. by the Agilent column heater unit. The HPLC autosampler was programmed to maintain the sample temperature at 20 C throughout the run.
10 uL of each sample was injected in triplicate into the column. Two solvents were used for the solvent gradient. Solvent A was an admixture of trimethylpentane and tetrahydrofuran (99:1). Solvent B was ethylacetate. The gradient utilized is described in the table below: […]
The Sedex 75 Evaporative Light Scattering Detector (ELSD) was operated at 45° C. with a gain of 5, and N2 pressure maintained at 3.1 bar. Analog signal obtained by the instrument was sent to the Agilent A/D interface module where it was converted to a digital output. The conversion was based on a 10000 mAU/volt set point and the data rate was set at 10 Hz (0.03 min). The resulting digital output was then feed into the Agilent ChemStation software for integration of the peak area.

[2] = target: T1, hAR (human androgen receptor) (Homo sapiens, UniProt P10275); experiment: Competitive hAR binding assay with 3H-DHT tracer; details: baculovirus/Sf9 hAR extract, 1 nM 3H-DHT, one hour at 4° C; mean of multiple tests; read-out: AR Binding IC50
T1 construct: made in house; host or cells: baculovirus/Sf9 insect cells (crude extract)
T1 sequence (P10275 1-920): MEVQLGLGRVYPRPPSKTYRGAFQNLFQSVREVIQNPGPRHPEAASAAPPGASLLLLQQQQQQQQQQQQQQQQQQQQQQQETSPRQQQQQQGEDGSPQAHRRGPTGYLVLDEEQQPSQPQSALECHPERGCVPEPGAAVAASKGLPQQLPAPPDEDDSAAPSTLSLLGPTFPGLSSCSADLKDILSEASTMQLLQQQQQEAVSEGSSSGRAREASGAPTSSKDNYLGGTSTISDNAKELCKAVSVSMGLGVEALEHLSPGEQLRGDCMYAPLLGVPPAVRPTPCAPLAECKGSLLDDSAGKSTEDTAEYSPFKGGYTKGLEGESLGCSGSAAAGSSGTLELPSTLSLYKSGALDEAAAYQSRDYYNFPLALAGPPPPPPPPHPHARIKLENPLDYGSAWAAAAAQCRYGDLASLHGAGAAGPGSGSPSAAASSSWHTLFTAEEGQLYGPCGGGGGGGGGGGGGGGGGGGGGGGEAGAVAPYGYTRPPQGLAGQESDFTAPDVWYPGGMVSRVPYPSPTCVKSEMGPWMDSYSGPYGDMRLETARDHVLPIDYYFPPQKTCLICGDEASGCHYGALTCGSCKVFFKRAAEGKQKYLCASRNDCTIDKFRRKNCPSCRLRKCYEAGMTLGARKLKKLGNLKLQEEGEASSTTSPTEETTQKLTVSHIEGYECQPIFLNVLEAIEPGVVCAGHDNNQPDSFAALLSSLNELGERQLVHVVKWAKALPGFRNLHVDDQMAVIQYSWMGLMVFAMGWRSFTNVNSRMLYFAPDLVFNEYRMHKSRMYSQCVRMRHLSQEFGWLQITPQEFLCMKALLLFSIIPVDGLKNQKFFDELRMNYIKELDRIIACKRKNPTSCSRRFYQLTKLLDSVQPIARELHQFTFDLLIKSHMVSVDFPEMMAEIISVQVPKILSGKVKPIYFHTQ

[3] = Vehicle #1 (polyethylene glycol/transcutol/ethanol 20/20/60), topical twice daily, vs vehicle control

## CSc1ccccc1Oc1ccc(C#N)cc1Cl [Example 5, 3-Chloro-4-(2-methylsulfanyl-phenoxy)-benzonitrile]
[1]; [3]
  % CE Reduction: 27%
  % WE Reduction: 39%
[1]; Vehicle #1, topical twice daily, sum of WE and CE
  % WE & CE Reduction: 66%
[2]
  IC50: 0.311 µM
